# Source: patent US20200253877A1, “GEMCABENE, PHARMACEUTICALLY ACCEPTABLE SALTS THEREOF, COMPOSITIONS THEREOF AND METHODS OF USE THEREFOR” (NEUROBO PHARMACEUTICALS, INC., priority 2018, published 2020)
# Columns and labels:
# [1] = system: STAM™ mice, a murine model of NASH-HCC; experiment: Murine STAM model of NASH-HCC: liver histology (H&E, NAFLD Activity Score, Sirius red fibrosis area); format: in vivo, mouse; parameters: key to NAS (mean ± SD) / NAFLD Activity Score: NAS = unweighted sum of steatosis, lobular inflammation, ballooning scores; details: for Lobular Inflammation score 0: number of mice: score 0 = No foci; for Hepatocyte Ballooning score 0: number of mice: score 0 = None; for Steatosis score 1: number of mice: score 1 = 5-33%; for Hepatocyte Ballooning score 1: number of mice: score 1 = Few balloon cells; for Lobular Inflammation score 2: number of mice: score 2 = 2-4 foci/200x; for Hepatocyte Ballooning score 2: number of mice: score 2 = Many cells/prominent ballooning; for NAFLD Activity Score / Sirius red-positive area: STAM mice
# Text: The present invention further provides methods for reducing a fibrosis score or a nonalcoholic fatty liver disease activity score in a subject, comprising administering to a subject in need thereof an effective amount of a tablet of the invention, gemcabene calcium salt hydrate Crystal Form 4, gemcabene calcium salt hydrate Crystal Form 5 or gemcabene calcium salt hydrate Crystal Form 6. The nonalcoholic fatty liver disease activity score (NAS or NAFLD score) is a composite score that measures changes in NAFLD during therapeutic trials. NAS is a composite score comprised of three components that includes scores for steatosis, lobular inflammation and hepatocyte ballooning (Table 36). NAS is the unweighted sum of the scores for steatosis, lobular inflammation and hepatocyte ballooning. Steatosis grade is quantified as the percentage of hepatocytes that contain fat droplets. The fibrosis stage of the liver is evaluated separately from NAS by histological evaluation of the intensity of Sirius red staining of collagen in the pericentral region of liver lobules.
# A study was performed to evaluate the efficacy of gemcabene calcium salt hydrate Crystal Form 1 having a PSD90 of 52 μm as measured by laser light diffraction, in treating non-alcoholic steatosis hepatitis (NASH) in the murine STAM™ model of NASH-HCC.
# Briefly, two-day old neonatal C57BL/6 male mice were administered low-dose streptozotocin (STZ), and were subsequently fed a HFC diet from 4 weeks of age. In this model, the mice typically develop liver steatosis and diabetes, reaching steatohepatitis within 3 weeks, followed by cirrhosis within 8 weeks, and carcinoma within 16 weeks. In the current study, mice were administered daily oral gemcabene calcium salt hydrate Crystal Form 1 starting at week 6 of age and were sacrificed at week 9. […] These STAM™ groups were orally administered from week 6 one of the following: water-vehicle, gemcabene calcium salt hydrate Crystal Form 1 at 30, 100 and 300 mg/kg daily, or telmisartan ([…]®) 10 mg/kg daily. […] All groups were sacrificed at week 9. Vehicle, gemcabene calcium salt hydrate Crystal Form 1, or telmisartan were administered by oral gavage once daily.
# For Hematoxylin and Eosin (H&E) staining, sections were cut from paraffin blocks of liver tissue prefixed in Bouin's solution and stained with Lillie-Mayer's Hematoxylin (Muto Pure Chemicals Co., Ltd., Japan) and eosin solution (Wako Pure Chemical Industries). NAFLD Activity score (NAS) was calculated according to the criteria of Kleiner, D E. Et al., Hepatology, 2005; 41:1313-1321. To visualize collagen deposition, Bouin's fixed liver sections were stained using picro-Sirius red solution (Waldeck, Germany). For Masson Trichrome staining, the sections were stained with Masson's Trichrome staining Kit (Sigma, USA) according to the manufacturer's instructions.
# For quantitative analysis of fibrosis area, bright field images of Sirius red-stained sections were captured around the central vein using a digital camera (DFC295; Leica, Germany) at 200-fold magnification, and the positive areas in 5 fields/section were measured using ImageJ software (National Institute of Health, USA). Samples were analyzed in a blinded fashion.
# [2] = Steady-state gemcabene pharmacokinetics in familial hypercholesterolemia patients (300, 600, 900 mg/day); format: in vivo, human; details: for Tlast: after 28 daily oral doses (film-coated Tablet D), FH patients, median
# Method: Additional (trough) samples were collected pre-dose on Day 14, Day 42, Day 70, and at the Early Termination Visit (if applicable). Plasma from these samples were analyzed for gemcabene concentrations and the data used for PK analysis. […] PK parameter estimates were derived by standard non-compartmental analysis methods using a validated installation of Phoenix® WinNonlin® version 6.4. The actual sampling times were used in the PK parameter calculations. All plasma concentrations reported as missing were treated as missing. […] The following gemcabene PK parameters were calculated for each patient from the plasma concentration-time data: AUClast and AUC(0-24) were calculated by numeric integration using the trapezoidal rule with linear up and log down interpolation. […] The individual patient and gemcabene concentration-time data are listed using the number of significant digits or decimal places provided by the bioanalytical lab and nominal sample times, and summarized descriptively in tabular formats by dose level, and visit (for trough samples).
# [3] = system: STAM™ mice, a murine model of NASH-HCC; experiment: Murine STAM model of NASH-HCC: whole blood, plasma and liver biochemistry; details: mean ± SD, n = 8; for Fasting blood glucose / Plasma insulin: Day 18 after 8 hours of fasting; for Liver free fatty acid / Liver hydroxyproline / Liver triglyceride / Non-fasting blood glucose / Plasma ApoC-III / Plasma CRP / Plasma adiponectin / Plasma alanine aminotransferase / Plasma alkaline phosphatase / Plasma aspartate aminotransferase / Plasma blood urea nitrogen / Plasma creatinine / Plasma gamma-glutamyl transferase / Plasma ketone body / Plasma leptin / Plasma total bilirubin / Plasma total cholesterol / Plasma triglyceride: at termination (Day 21)
# [4] = 300-900 mg/day, dose proportionality
# [5] = dose range 300 mg/day to 900 mg/day
smiles,measurement,setting,value
"CC(C)(CCCCOCCCCC(C)(C)C(=O)O)C(=O)O [gemcabene, 6-(5-carboxy-5-methyl-hexyloxy)-2,2-dimethyl-hexanoic acid]",Lobular Inflammation score 1: number of mice,"[1]; 30 mg/kg PO QD, n = 8",2
same,NAS (mean ± SD),"[1]; 30 mg/kg PO QD, n = 8",3.4 ± 1.1
same,Lobular Inflammation score 0: number of mice,"[1]; 30 mg/kg PO QD, n = 8",1
same,Hepatocyte Ballooning score 0: number of mice,"[1]; 30 mg/kg PO QD, n = 8",4
same,Steatosis score 1: number of mice,"[1]; 30 mg/kg PO QD, n = 8",8
same,Hepatocyte Ballooning score 1: number of mice,"[1]; 30 mg/kg PO QD, n = 8",2
same,Lobular Inflammation score 2: number of mice,"[1]; 30 mg/kg PO QD, n = 8",4
same,Hepatocyte Ballooning score 2: number of mice,"[1]; 30 mg/kg PO QD, n = 8",2
same,Lobular Inflammation score 3: number of mice,"[1]; 30 mg/kg PO QD, n = 8, score 3 = >4 foci/200x",1
same,NAFLD Activity Score,[1]; 30 mg/kg,3.4
same,Sirius red-positive area,[1]; 30 mg/kg,0.56%
same,Lobular Inflammation score 1: number of mice,"[1]; 100 mg/kg PO QD, n = 8",1
same,NAS (mean ± SD),"[1]; 100 mg/kg PO QD, n = 8",3.6 ± 1.4
same,Lobular Inflammation score 0: number of mice,"[1]; 100 mg/kg PO QD, n = 8",2
same,Hepatocyte Ballooning score 0: number of mice,"[1]; 100 mg/kg PO QD, n = 8",1
same,Steatosis score 1: number of mice,"[1]; 100 mg/kg PO QD, n = 8",8
same,Hepatocyte Ballooning score 1: number of mice,"[1]; 100 mg/kg PO QD, n = 8",4
same,Lobular Inflammation score 2: number of mice,"[1]; 100 mg/kg PO QD, n = 8",5
same,Hepatocyte Ballooning score 2: number of mice,"[1]; 100 mg/kg PO QD, n = 8",3
same,NAFLD Activity Score,[1]; 100 mg/kg,3.6
same,Sirius red-positive area,[1]; 100 mg/kg,0.53%
same,Lobular Inflammation score 1: number of mice,"[1]; 300 mg/kg PO QD, n = 8",2
same,NAS (mean ± SD),"[1]; 300 mg/kg PO QD, n = 8",2.5 ± 0.8
same,Steatosis score 0: number of mice,"[1]; 300 mg/kg PO QD, n = 8, score 0 = <5%",3
same,Lobular Inflammation score 0: number of mice,"[1]; 300 mg/kg PO QD, n = 8",2
same,Hepatocyte Ballooning score 0: number of mice,"[1]; 300 mg/kg PO QD, n = 8",4
same,Steatosis score 1: number of mice,"[1]; 300 mg/kg PO QD, n = 8",5
same,Hepatocyte Ballooning score 1: number of mice,"[1]; 300 mg/kg PO QD, n = 8",3
same,Lobular Inflammation score 2: number of mice,"[1]; 300 mg/kg PO QD, n = 8",4
same,Hepatocyte Ballooning score 2: number of mice,"[1]; 300 mg/kg PO QD, n = 8",1
same,NAFLD Activity Score,[1]; 300 mg/kg,2.5
same,Sirius red-positive area,[1]; 300 mg/kg,0.59%
same,Tlast,"[2]; 300 mg/day, n = 8",25.2 h
same,Tlast,"[2]; 600 mg/day, n = 8",24.6 h
same,Tlast,"[2]; 900 mg/day, n = 7",23.8 h
same,"upper limit of the 95% CI of slope, log AUClast vs log dose",[2]; [4],0.9993
same,"upper limit of the 95% CI of slope, log Cmax vs log dose",[2]; [4],0.9767
same,time to attain steady state,"[2]; daily dosing, individual trough concentrations",≤ 14 days
same,AUC(0-24) dose proportionality,[2]; [5],increased dose proportionally
same,Cmax dose proportionality,[2]; [5],slightly less than dose proportional
same,Fasting blood glucose,[3]; 30 mg/kg PO QD,437 ± 42 mg/dL
same,Plasma insulin,[3]; 30 mg/kg PO QD,0.13 ± 0.04 ng/mL
same,Liver free fatty acid,[3]; 30 mg/kg PO QD,35.1 ± 8.4 pEq/g liver
same,Liver hydroxyproline,[3]; 30 mg/kg PO QD,0.66 ± 0.12 μg/mg total protein
same,Liver triglyceride,[3]; 30 mg/kg PO QD,49.2 ± 8.6 mg/g liver
same,Non-fasting blood glucose,[3]; 30 mg/kg PO QD,607 ± 48 mg/dL
same,Plasma ApoC-III,[3]; 30 mg/kg PO QD,6.6 ± 0.8 gg/mL
same,Plasma CRP,[3]; 30 mg/kg PO QD,2.5 ± 0.3 gg/mL
same,Plasma adiponectin,[3]; 30 mg/kg PO QD,4.1 ± 0.9 gg/mL
same,Plasma alanine aminotransferase,[3]; 30 mg/kg PO QD,41 ± 15 U/L
same,Plasma alkaline phosphatase,[3]; 30 mg/kg PO QD,382 ± 78 U/L
same,Plasma aspartate aminotransferase,[3]; 30 mg/kg PO QD,100 ± 44 U/L
same,Plasma blood urea nitrogen,[3]; 30 mg/kg PO QD,25.0 ± 3.9 mg/dL
same,Plasma creatinine,[3]; 30 mg/kg PO QD,0.1 ± 0.0 mg/dL
same,Plasma gamma-glutamyl transferase,[3]; 30 mg/kg PO QD,1 ± 0 U/L
same,Plasma ketone body,[3]; 30 mg/kg PO QD,9.43 ± 2.35 m M
same,Plasma leptin,[3]; 30 mg/kg PO QD,3.1 ± 1.2 ng/mL
same,Plasma total bilirubin,[3]; 30 mg/kg PO QD,0.2 ± 0.1 mg/dL
same,Plasma total cholesterol,[3]; 30 mg/kg PO QD,194 ± 17 mg/dL
same,Plasma triglyceride,[3]; 30 mg/kg PO QD,319 ± 198 mg/dL
same,Fasting blood glucose,[3]; 100 mg/kg PO QD,441 ± 46 mg/dL
same,Plasma insulin,[3]; 100 mg/kg PO QD,0.17 ± 0.06 ng/mL
same,Liver free fatty acid,[3]; 100 mg/kg PO QD,38.4 ± 8.5 pEq/g liver
same,Liver hydroxyproline,[3]; 100 mg/kg PO QD,0.74 ± 0.38 μg/mg total protein
same,Liver triglyceride,[3]; 100 mg/kg PO QD,58.4 ± 14.5 mg/g liver
same,Non-fasting blood glucose,[3]; 100 mg/kg PO QD,653 ± 53 mg/dL
same,Plasma ApoC-III,[3]; 100 mg/kg PO QD,6.0 ± 2.5 gg/mL
same,Plasma CRP,[3]; 100 mg/kg PO QD,1.9 ± 0.3 gg/mL
same,Plasma adiponectin,[3]; 100 mg/kg PO QD,4.1 ± 0.5 gg/mL
same,Plasma alanine aminotransferase,[3]; 100 mg/kg PO QD,27 ± 7 U/L
same,Plasma alkaline phosphatase,[3]; 100 mg/kg PO QD,642 ± 167 U/L
same,Plasma aspartate aminotransferase,[3]; 100 mg/kg PO QD,88 ± 32 U/L
same,Plasma blood urea nitrogen,[3]; 100 mg/kg PO QD,29.8 ± 4.3 mg/dL
same,Plasma creatinine,[3]; 100 mg/kg PO QD,0.1 ± 0.1 mg/dL
same,Plasma gamma-glutamyl transferase,[3]; 100 mg/kg PO QD,1 ± 0 U/L
same,Plasma ketone body,[3]; 100 mg/kg PO QD,5.75 ± 3.24 m M
same,Plasma leptin,[3]; 100 mg/kg PO QD,4.3 ± 1.2 ng/mL
same,Plasma total bilirubin,[3]; 100 mg/kg PO QD,0.3 ± 0.2 mg/dL
same,Plasma total cholesterol,[3]; 100 mg/kg PO QD,228 ± 37 mg/dL
same,Plasma triglyceride,[3]; 100 mg/kg PO QD,191 ± 57 mg/dL
same,Fasting blood glucose,[3]; 300 mg/kg PO QD,407 ± 15 mg/dL
same,Plasma insulin,[3]; 300 mg/kg PO QD,0.13 ± 0.04 ng/mL
same,Liver free fatty acid,[3]; 300 mg/kg PO QD,46.0 ± 5.5 pEq/g liver
same,Liver hydroxyproline,[3]; 300 mg/kg PO QD,0.70 ± 0.10 μg/mg total protein
same,Liver triglyceride,[3]; 300 mg/kg PO QD,56.0 ± 13.9 mg/g liver
same,Non-fasting blood glucose,[3]; 300 mg/kg PO QD,638 ± 63 mg/dL
same,Plasma ApoC-III,[3]; 300 mg/kg PO QD,6.2 ± 0.7 gg/mL
same,Plasma CRP,[3]; 300 mg/kg PO QD,1.9 ± 0.4 gg/mL
same,Plasma adiponectin,[3]; 300 mg/kg PO QD,4.9 ± 0.5 gg/mL
same,Plasma alanine aminotransferase,[3]; 300 mg/kg PO QD,32 ± 14 U/L
same,Plasma alkaline phosphatase,[3]; 300 mg/kg PO QD,794 ± 57 U/L
same,Plasma aspartate aminotransferase,[3]; 300 mg/kg PO QD,147 ± 122 U/L
same,Plasma blood urea nitrogen,[3]; 300 mg/kg PO QD,30.1 ± 5.8 mg/dL
same,Plasma creatinine,[3]; 300 mg/kg PO QD,0.2 ± 0.1 mg/dL
same,Plasma gamma-glutamyl transferase,[3]; 300 mg/kg PO QD,1 ± 0 U/L
same,Plasma ketone body,[3]; 300 mg/kg PO QD,5.68 ± 3.08 m M
same,Plasma leptin,[3]; 300 mg/kg PO QD,3.2 ± 1.1 ng/mL
same,Plasma total bilirubin,[3]; 300 mg/kg PO QD,0.3 ± 0.1 mg/dL
same,Plasma total cholesterol,[3]; 300 mg/kg PO QD,234 ± 45 mg/dL
same,Plasma triglyceride,[3]; 300 mg/kg PO QD,149 ± 32 mg/dL
